Results as given in patent US9879303B2, “Chromogenic glucuronidase substrates and uses” (Glycosynth Limited, priority 2013, dated 2018).
Counter-ions that a name gives are not always drawn.

Tested on: E. coli clinical isolates
Assay: screen of strains on agar plates (CPS ID 3 or Columbia agar)
Assay type: cell-based
Set-up: key to colour: Red, Green, Black or Purple mean strong colour; Red, Green, Black or Purple mean strong colour; Red, Green, Black or Purple mean strong colour; Red, Green, Black or Purple mean strong colour; +/− means less colour than strong; Tr means a trace of colour, less than +/−; — means no colour
Settings: for colour: 37° C. 18 hours
Text: In order to obtain a fuller picture of the sensitivity of the substrates, they were screened with 100 different clinical isolates of E. coli in a liquid medium containing FAC. The isolates were chosen at random from the Microbiology Department, Freeman Hospital, Newcastle Upon Tyne, UK. The effectiveness of the new substrates was compared with three other media which all contained indoxyl-β-D-glucuronides. One was a commercial medium, CPS ID 3 (bioMérieux SA, Lyon, France). […] This medium was employed as a control. Among the β-D-glucuronidase producing strains of E. coli there is a large variation in the quantity of the enzyme produced and it is almost certain that the CPS ID 3 medium has been rigorously optimised to allow good growth of all the target organisms and maximum expression of the target enzymes. Therefore, two indoxyl glucuronides, X-β-D-glucuronide CHA salt and Rose-β-D-glucuronide CHA salt were also tested in a simple agar medium to allow a direct comparison of the sensitivity of these Indoxyl glucuronides when used in a medium that has not been optimised for the growth of the target organism. The comparison of the results for Rose-β-D-glucuronide and the CPS ID 3 medium was of particular significance as the commercial medium also uses Rose-β-D-glucuronide for the detection of E. coli. For consistency, the four glucuronides were all chosen as their CHA salts. As already stated, it is not anticipated that the salt form is critical to their performance. Currently. X-β-D-glucuronide is often used as either the CHA salt or the sodium salt. Brenner and colleagues [K. P. Brenner et al, Appl. Environ. Microbiol., 59, 3534-3544, (1993)] found no difference in the performance of the CHA and sodium salt forms with their application using indoxyl-β-D-glucuronide, neither in respect of colour development nor in the recovery of E. coli.
The two indoxyl glucuronides used produce insoluble endpoints following hydrolysis, as does the CPS ID 3 medium. It was therefore necessary to test these two substrates on agar plates. In contrast, catechol-β-D-glucuronide (1) and DHN-β-D-glucuronide (2b) give much more soluble endpoints best suited to liquid media and were therefore tested in a broth medium. Each broth was prepared using proteose peptone (Oxoid, Basingstoke, UK) (2 g), NaCl (1 g) and FAC (100 mg) in DI water (180 mL). This mixture was autoclaved and cooled to room temperature before being dispensed into bijoux (100×1.8 mL). Catechol β-D-glucuronide CHA salt (1) or DHN-β-D-glucuronide CHA salt (2b) (60 mg) were each dissolved in water (20 mL) and filtered to sterilize before being aseptically dispensed into successive bijoux (0.2 mL) containing the broth solution. The broth/substrate solutions were then inoculated with bacterial suspensions made up to 0.5 McFarland standard (2 μL per bijoux). X-β-D-glucuronide CHA salt (Glycosynth Ltd, Warrington, UK) (10 mg) was dissolved in NMP (200 μL). Rose-β-D-glucuronide CHA salt (Glycosynth Ltd, Warrington, UK) (20 mg) was dissolved in NMP (200 μL). These solutions were then added to Columbia agar (Oxoid, Basingstoke, UK) (100 mL) and inoculated with bacterial suspensions made up to 0.5 McFarland standard (1 μL). The plates and broths were incubated at 37° C. for 18 hours in air.

[1] = 100 E. coli strains after 18 h incubation

O=C(O)[C@H]1O[C@@H](Oc2c[nH]c3ccc(Br)c(Cl)c23)[C@H](O)[C@@H](O)[C@@H]1O [X-β-D-glucuronide CHA salt, 5-bromo-4-chloro-3-indolyl β-D-glucuronide]
—: colour (E. coli 260313A) | colour (E. coli 260316T) | colour (E. coli 260333P) | colour (E. coli 260364H) | colour (E. coli 260390B) | colour (E. coli 260400N) | colour (E. coli 260406A) | colour (E. coli 260416W) | colour (E. coli 260437A) | colour (E. coli 260471B) | colour (E. coli 260478N) | colour (E. coli 260483R) | colour (E. coli 260495R) | colour (E. coli 260505Q) | colour (E. coli 260514G) | colour (E. coli 260515Z) | colour (E. coli 260537E) | colour (E. coli 260538H) | colour (E. coli 260553X) | colour (E. coli 260578D) | colour (E. coli 2603121P) | colour (E. coli O157 non-toxigenic)
79%: % Sensitivity [1]
green colonies: colour of positive colonies (in words)
79: Positive strains [1]
Green: colour (E. coli 260262P) | colour (E. coli 260280Z) | colour (E. coli 260310H) | colour (E. coli 260327V) | colour (E. coli 260330Y) | colour (E. coli 260345F) | colour (E. coli 260348K) | colour (E. coli 260354W) | colour (E. coli 260370C) | colour (E. coli 260375E) | colour (E. coli 260396Z) | colour (E. coli 260398Q) | colour (E. coli 260401Q) | colour (E. coli 260402H) | colour (E. coli 260404W) | colour (E. coli 260405P) | colour (E. coli 260406Y) | colour (E. coli 260407F) | colour (E. coli 260408C) | colour (E. coli 260411Z) | colour (E. coli 260412Q) | colour (E. coli 260414H) | colour (E. coli 260415Y) | colour (E. coli 260417P) | colour (E. coli 260422Y) | colour (E. coli 260424P) | colour (E. coli 260425A) | colour (E. coli 260426F) | colour (E. coli 260428T) | colour (E. coli 260431N) | colour (E. coli 260432E) | colour (E. coli 260433H) | colour (E. coli 260434Y) | colour (E. coli 260435W) | colour (E. coli 260436P) | colour (E. coli 260438F) | colour (E. coli 260439C) | colour (E. coli 260440S) | colour (E. coli 260441G) | colour (E. coli 260458Y) | colour (E. coli 260459W) | colour (E. coli 260463D) | colour (E. coli 260464G) | colour (E. coli 260479Q) | colour (E. coli 260480M) | colour (E. coli 260481J) | colour (E. coli 260485D) | colour (E. coli 260486L) | colour (E. coli 260492J) | colour (E. coli 260494B) | colour (E. coli 260497D) | colour (E. coli 260502G) | colour (E. coli 260503Z) | colour (E. coli 260504N) | colour (E. coli 260506E) | colour (E. coli 260508Y) | colour (E. coli 260509W) | colour (E. coli 260510R) | colour (E. coli 260511X) | colour (E. coli 260521S) | colour (E. coli 260522Z) | colour (E. coli 260532S) | colour (E. coli 260533G) | colour (E. coli 260536Q) | colour (E. coli 260539Y) | colour (E. coli 260541R) | colour (E. coli 260545G) | colour (E. coli 260547N) | colour (E. coli 260548Q) | colour (E. coli 260549E) | colour (E. coli 260554D) | colour (E. coli 260555L) | colour (E. coli 260563B) | colour (E. coli 260564R) | colour (E. coli 2604399E)
21: Negative strains [1]
